Laboratory results from paper PMC11173508, “Pharmacokinetics and Tissue Distribution of Itampolin A following Intragastric and Intravenous Administration in Rats Using Ultra-High-Performance Liquid Chromatography–Tandem Mass Spectrometry” (Molecules, 2024).
Like-named read-outs stand apart in the source and are kept apart here.

Legend:
[1] = Solubility in normal saline; format: physicochemical
[2] = Tissue distribution study in rats after intragastric administration; format: in vivo, Sprague–Dawley rats; settings: intragastric 25 mg/kg
Procedure: (§1) Sprague–Dawley rats (250 ± 20 g) were supplied from the Experimental Animal Centre of China Medical University (Shenyang, China) and housed under unified conditions. All of the animal experiments were conducted in compliance with the Guidelines for Care and Use of Laboratory Animals of China Medical University and the protocols were approved by the Animal Ethics Committee of the institution (code number: CMU2023205). The rats were raised in a standard environment with a temperature of 24 ± 2 °C, relative humidity of 55 ± 10%, and 12 h light/12 h dark cycles. These rats were acclimatized to the environment for at least one week before the experiment, provided free access to drinking water, and fed during this period. Twenty-four SD rats, which were divided into four groups (six rats per group), received 5 mg/kg itampolin A by intravenous administration or 10, 25, and 50 mg/kg itampolin A by intragastric administration for the pharmacokinetics experiments. Twenty SD rats (five rats for each time point) received 25 mg/kg itampolin A by intragastric administration for the tissue distribution study.
Various tissues (heart, liver, spleen, lung, kidney, brain, intestine, and stomach) were harvested and washed with ice-cold 0.9% sodium chloride solution to remove the superficial blood. After being blotted dry with filter paper, each tissue sample weighed accurately was homogenized in 0.9% sodium chloride solution (1:5, w/v). Then, 100 µL of tissue homogenate was taken and processed further like the plasma sample.
Twenty Sprague–Dawley rats were randomly divided into four groups (five rats each) and received a single dose of 25 mg/kg of itampolin A via intragastric administration. The rats were executed by cervical dislocation at 1, 4, 8, and 12 h. Afterwards, various tissue samples, including heart, liver, spleen, lung, kidney, brain, intestine, and stomach, were collected into centrifuged tubes, and then processed with the methods described in “3.5. Sample Preparation”.

p38α = tested on: p38α; parameters: method as in PMID 30642059; settings: binding to the DFG-out conformation of p38α; cited from earlier work
[3] = Pharmacokinetic study in rats after intragastric and intravenous administration (UHPLC-MS/MS of plasma); format: in vivo, Sprague–Dawley rats; settings: for MRT inf: n = 6, read-out: MRT0–∞; for k el: n = 6, read-out: ke (converted); for bioavailability: F = Doseiv × AUCig/(Doseig × AUCiv) × 100%, read-out: absolute bioavailability (F)
Procedure: as §1
The simple protein precipitation extraction technique using methanol as the precipitating solvent was applied to extract itampolin A and IS from biological samples [23, 24]. The 100 µL of plasma sample, 50 µL of IS working solution, and 200 µL of methanol were added in 500 µL microcentrifuge tubes to precipitate proteins. After vortexing for 1 min, the samples were centrifuged at 12,000 rpm for 10 min to remove the denatured protein. Subsequently, the supernatant was transferred into another tube and evaporated to dryness with a stream of nitrogen at 35 °C. The remains were reconstituted in 100 µL of initial mobile phase, briefly vortexed, and centrifuged at 12,000 rpm for 10 min. Then, 10 µL of the supernatant was transferred to sampling vials for the UHPLC-MS/MS system.
For both intragastric and intravenous administration, itampolin A was dissolved in polyethylene glycol (PEG)-saline (1:3, PEG: 380–420) for the preparation of dosing solutions. Eighteen Sprague–Dawley rats were divided into three groups randomly (six rats each). The rats of each group were weighed, and then given a single dose of 10 mg/kg, 25 mg/kg, and 50 mg/kg itampolin A via intragastric administration, respectively. Blood samples (200 µL) were obtained from orbital vein into heparinized centrifuge tubes at 0.083, 0.25, 0.5, 0.75, 1, 1.5, 2, 3, 4, 6, 8, 12, and 24 h after drug administration.
Six Sprague–Dawley rats were weighed, and then given a single dose of 5 mg/kg of itampolin A via intravenous administration. Blood samples (200 µL) were obtained from orbital vein into heparinized centrifuge tubes at 0.033, 0.083, 0.167, 0.25, 0.5, 0.75, 1, 1.5, 2, 3, 4, 8, and 12 h after drug administration. The blood samples obtained from both intragastric and intravenous administration were immediately separated by centrifugation at 12,000 rpm for 10 min, and then the supernatant plasma was gathered and stored at −20 °C prior to analysis.
The pharmacokinetic parameters were calculated by non-compartmental model using the DAS 3.2.8 software. All data were presented as mean ± SD.

[4] = tested on: non-small-cell lung cancer; parameters: method as in doi:10.2174/1570179414666170215092631; settings: cited from earlier work
[5] = measured within 12 h, mean ± SD, n = 5
[6] = Sprague-Dawley, rat, iv, i.v. 5 mg/kg, plasma, mean ± SD, n = 6
[7] = Sprague-Dawley, rat, iv, i.v. 5 mg/kg, plasma, mean ± SD
[8] = Sprague-Dawley, rat, plasma, iv, 5 mg/kg, i.v. 5 mg/kg, mean ± SD, n = 6
[9] = Sprague-Dawley, rat, plasma, po, 10 mg/kg, i.g. low dose 10 mg/kg, mean ± SD, n = 6
[10] = Sprague-Dawley, rat, plasma, po, 25 mg/kg, i.g. mid dose 25 mg/kg, mean ± SD, n = 6
[11] = Sprague-Dawley, rat, plasma, po, 50 mg/kg, i.g. high dose 50 mg/kg, mean ± SD, n = 6
[12] = Sprague-Dawley, rat, po, i.g. high dose 50 mg/kg, plasma, mean ± SD, n = 6
[13] = Sprague-Dawley, rat, po, i.g. high dose 50 mg/kg, plasma, mean ± SD
[14] = Sprague-Dawley, rat, po, i.g. low dose 10 mg/kg, plasma, mean ± SD, n = 6
[15] = Sprague-Dawley, rat, po, i.g. low dose 10 mg/kg, plasma, mean ± SD
[16] = Sprague-Dawley, rat, po, i.g. mid dose 25 mg/kg, plasma, mean ± SD, n = 6
[17] = Sprague-Dawley, rat, po, i.g. mid dose 25 mg/kg, plasma, mean ± SD
[18] = i.g. high dose 50 mg/kg, plasma, mean ± SD, n = 6
[19] = i.g. low dose 10 mg/kg, plasma, mean ± SD, n = 6
[20] = i.g. mid dose 25 mg/kg, plasma, mean ± SD, n = 6
[21] = intragastric 10, 25 and 50 mg/kg

## COc1c(Br)cc(C[C@H](NC(=O)Cc2ccc(OCCCNC(C)=O)cc2)C(=O)NCCc2cc(Br)c(O)c(Br)c2)cc1Br [itampolin A, Itampolin A]
[1]
  solubility in normal saline: small
[2]
  concentration in the brain: lower concentration in the brain
  distribution in the heart and spleen: low distribution level and rapid elimination
[2]; [5]
  highest concentration in intestine: 378.2 ± 36.8 ng/mL
  highest concentration in kidney: 497.7 ± 51.9 ng/mL
  highest concentration in liver: 418.8 ± 40.3 ng/mL
  highest concentration in lung: 800.6 ± 79.0 ng/mL
  highest concentration in stomach: 429.6 ± 27.2 ng/mL
p38α
  phospho-p38α expression: decreasing the phospho-p38α expression
[3]; [6]
  AUC(0-inf): 2.83 ± 0.11 µg·h/mL
  AUC(0-t): 0.978 ± 0.0262 µg·h/mL
  Cmax: 1.34 ± 0.0522 µg/mL
  clearance: 1.8 L/h/kg
[3]; [7]
  MRT inf: 4.8 ± 0.3 h
  k el: 7.5e-05 s⁻¹
[3]; Sprague-Dawley, rat, iv, i.v. 5 mg/kg, plasma, mean ± SD, n = 6, read-out: Vd
  Vd: 6.6 ± 0.4 L/kg
[3]; [8]
  Tmax: 0.03 h
  half-life: 2.6 ± 0.2 h
[3]; Sprague-Dawley, rat, plasma, oral dose 10 mg/kg vs i.v. 5 mg/kg
  bioavailability: 18.8%
[3]; Sprague-Dawley, rat, plasma, oral dose 25 mg/kg vs i.v. 5 mg/kg
  bioavailability: 13.7%
[3]; Sprague-Dawley, rat, plasma, oral dose 50 mg/kg vs i.v. 5 mg/kg
  bioavailability: 11.2%
[3]; [9]
  Tmax: 1.7 ± 0.2 h
  half-life: 2.6 ± 0.3 h
[3]; [10]
  Tmax: 1.7 ± 0.2 h
  half-life: 2.3 ± 0.2 h
[3]; [11]
  Tmax: 0.9 ± 0.1 h
  half-life: 2.1 ± 0.2 h
[3]; Sprague-Dawley, rat, plasma, po, 50 mg/kg, intragastric 10, 25 and 50 mg/kg, range over the three doses
  half-life: 2.1 to 2.6 h
[3]; Sprague-Dawley, rat, plasma, po, 50 mg/kg, intragastric 10, 25 and 50 mg/kg, summary over the three doses
  Tmax: < 1.7 h
[3]; [12]
  AUC(0-inf): 3.19 ± 0.0947 µg·h/mL
  AUC(0-t): 2.64 ± 0.0446 µg·h/mL
  Cmax: 0.807 ± 0.0369 µg/mL
[3]; [13]
  MRT inf: 3.7 ± 0.2 h
  k el: 9.17e-05 s⁻¹
[3]; [14]
  AUC(0-inf): 1.08 ± 0.0558 µg·h/mL
  AUC(0-t): 0.939 ± 0.0349 µg·h/mL
  Cmax: 0.283 ± 0.02 µg/mL
[3]; [15]
  MRT inf: 4.6 ± 0.5 h
  k el: 7.5e-05 s⁻¹
[3]; [16]
  AUC(0-inf): 1.94 ± 0.116 µg·h/mL
  AUC(0-t): 1.54 ± 0.0449 µg·h/mL
  Cmax: 0.412 ± 0.0137 µg/mL
[3]; [17]
  MRT inf: 4.2 ± 0.3 h
  k el: 8.33e-05 s⁻¹
[3]; [18]
  CL: 12.4 ± 0.4 L/h/kg
  Vd: 44.6 ± 2.8 L/kg
[3]; [19]
  CL: 11.1 ± 0.5 L/h/kg
  Vd: 42.2 ± 2.9 L/kg
[3]; [20]
  CL: 12.9 ± 0.8 L/h/kg
  Vd: 43.9 ± 1.7 L/kg
[3]; [21]
  correlation coefficient of AUC0–t versus dose (dose linearity): 0.999
  correlation coefficient of AUC0–∞ versus dose (dose linearity): 0.998
  correlation coefficient of Cmax versus dose (dose linearity): 0.981
[4]
  anticancer activity against non-small-cell lung cancer: significant anticancer activity
